Experimental data as given in patent US20020128434A1, “Alpha-(1,3-dicarbonylenol ether) methyl ketones as cysteine protease inhibitors” (priority 1993, published 2002).
Converted amounts (≈) assume the structure as drawn. Counter-ions that a name gives are not always drawn. Each block holds one molecule with its values, some of them ahead of it.

Tests used:
[1] = tested on: calpain (Calcium Activated Neutral Protease); assay: Calpain inhibition; format: biochemical; conditions: incubated 30 minutes at 37° C.; tested at 20 μM, 2 μM, 200 nM
Experimental: The percent inhibition of one inhibitor, Acetyl-Leucyl-Leucyl-Phenylalanyl-α-(4-oxy-dihydrofuran-2-one) methyl ketone, on calpain (Calcium Activated Neutral Protease) was determined as follows. A 50 mM Hepes, 10 mM calcium chloride, 5 mM cysteine, 1 mM β-mercaptoethanol, pH 7.5 buffer solution was prepared. The enzyme was activated for 1 minute in the buffer solution at room temperature. Inhibitor was prepared as stock solution in dimethylformamide. Inhibitor and enzyme/buffer were incubated for 30 minutes at 37° C. Final concentrations of inhibitor were 20 μM, 2 μM, and 200 nM. Enzyme activity was followed with 200 μM Boc-Valnyl-Leucyl-Lysine-AFC substrate by the release of free fluorescent detecting group over minutes at 37° C., as compared to the control.

[2] = molecular target: T1, Cathepsin B, purified from human liver (Homo sapiens, UniProt P07858); assay: In vitro evaluation of inhibitors with purified cathepsin B; format: biochemical; conditions: purified cathepsin B; read-out: IC50 Cat B
T1 construct: Cathepsin B, purified from human liver; purchased Enzyme Systems Products (Dublin, Calif.); host or cells: human liver (tissue-purified)
Experimental: Enzyme: Cathepsin B, purified from human liver, is from Enzyme Systems Products (Dublin, Calif.). The activity is 50 mU per ml at 30° C., in 52 mM sodium phosphate, pH 6.2, 31 mM DTT, 2.1 mM EDTA, with 0.2 mM Z—Arg—Arg-7-amino-4-trifluoromethyl-coumarin as a substrate. Specific activity is 8330 mU per mg protein. (1 mU=1 nmol per min.)
Substrate Boc—Leu—Arg—Arg-7-amino-4-trifluoromethyl-coumarin-2HBr is from Enzyme Systems Products (Dublin, Calif.) and is known to be a specific substrate for cathepsin B. A 20 mM solution is made in DMF and stored at […].
Candidate inhibitors are dissolved in DMF and diluted to 20 mM and stored at […]. Dilutions are made in assay buffer.
The percent inhibition and the inhibitor concentration at which the enzyme is 50% inhibited (IC50) are determined as follows. Five μl of assay buffer (50 mM potassium phosphate pH 6.2, 2 mM EDTA, 5 mM DTT) on ice for 30 min. The inhibition is initiated by the addition of […] inhibitor each to the 480 μl aliquots. The 485 μl aliquot with enzyme is used as a control and thus receives no inhibitor. The enzyme/inhibitor mixtures are incubated 10 min. on ice and assayed for cathepsin B activity as follows:
Cathepsin B assay: To 490 μl of pre-incubated inhibitor/enzyme mixtures in assay buffer in 0.5 ml cuvette at 37° is added 10 μl of the substrate. Final inhibitor concentrations become 2000 nM, 200 nM, and 20 nM for the 200 μM, 20 μM and 2 μM stock concentrations, respectively. Activity is followed by release of free AFC over 5 min. The change in fluorescence is (fluorescence units at t=6)−(fluorescence units at t=1) with a Perkin-Elmer LS-5B spectrofluorometer (ex=400 nm, em=505 nm). The percent inhibition is determined by comparing the change in fluorescence units of the three sample concentrations of inhibited enzyme to the change in fluorescence units of the control enzyme. The percent inhibition is calculated as:
100−(fl. units of sample/fl. units of control×100).
The IC50 is ascertained by plotting percent inhibition vs. inhibitor concentration on the log scale. The IC50 is the concentration of the inhibitor (nM) at which the enzyme is inhibited by 50%.

physchem = conditions: 20 °C, water, thermodynamic from solid
malarial inhibition = assay: Another test of malarial inhibition
Cathepsin H = molecular target: T2, Cathepsin H (Homo sapiens, UniProt P09668); assay: Cathepsin H inhibition; format: biochemical
T2 sequence (P09668 98-335): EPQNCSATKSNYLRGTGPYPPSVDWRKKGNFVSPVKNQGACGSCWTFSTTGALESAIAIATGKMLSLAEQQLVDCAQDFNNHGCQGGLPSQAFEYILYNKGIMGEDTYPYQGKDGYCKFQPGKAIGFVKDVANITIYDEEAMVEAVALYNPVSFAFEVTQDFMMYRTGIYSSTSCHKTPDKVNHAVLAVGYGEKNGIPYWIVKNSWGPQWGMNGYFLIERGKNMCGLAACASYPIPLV

IC50 [2]: 10 nM
solubility (physchem): 277 µg/mL (≈ 517 µM)
Compound: O=C1C=C(OCC(=O)[C@H](CCc2ccccc2)NC(=O)[C@H](Cc2ccccc2)NC(=O)N2CCOCC2)CO1 [Compound 12, N-Morpholinecarbonyl-L-phenylalanyl-L-homophenylalanyl-α-(4-oxy-dihydrofuran-2-one) methyl ketone]

IC50 (Cathepsin H): 118 nM
Compound: Cc1cc(OCC(=O)[C@@H](N)CCc2ccccc2)cc(=O)o1 [L-Homophenylalanyl-α-(4-oxy-(6-methyl-2-pyrone)methyl ketone]

Second part, the molecule before the results:

Compound: CC(=O)N[C@@H](CC(C)C)C(=O)N[C@@H](CC(C)C)C(=O)N[C@@H](Cc1ccccc1)C(=O)COC1=CC(=O)OC1 [Acetyl-Leucyl-Leucyl-Phenylalanyl-α-(4-oxy-dihydrofuran-2-one) methyl ketone]
concentration at which inhibitor showed activity against calpain [1]: less than 2 μM

Compound: CCC1OC(=O)C(OCC(=O)[C@H](CCc2ccccc2)NC(=O)[C@H](Cc2ccccc2)NC(=O)N2CCOCC2)=C1C (stereo partly drawn) [Compound A2, N-Morpholinecarbonyl-L-phenylalanyl-L-homophenylalanyl-α-(3-oxy-5-ethyl-4-methyl 2(5H)furanone) methyl ketone]
malarial inhibition (malarial inhibition): particularly effective

Compound: N[C@@H](CCc1ccccc1)C(=O)COC1=CC(=O)OC1 [L-Homophenyl-α-(4-oxy-dihydrofuran-2-one)methyl ketone hydrochloride]
IC50 (Cathepsin H): 251 nM
